Results reported in patent EP3783012A1, “AN ANTIMICROBIAL PEPTIDE” (priority 2019, dated 2021).
Where no end group is shown, it is not given here.

Tests used:
[1] = in humans; cited from earlier work
human THP-1 macrophages = assay: Ex-vivo viability assay (MTT); type: cell-based
Procedure: Ex-vivo viability assay: Cellular viability was assessed in human THP-1 macrophages by a colorimetric assay that makes use of thiazolyl blue tetrazolium bromide (MTT, Sigma). Cells were grown in Roswell Park Memorial Institute (RPMI) medium supplemented with 10% of heat inactivated fetal bovine serum (FBS), 1% L-glutamine and 1% penicillin-streptomycin. At 90% confluence, cells were centrifuged and diluted to a 1:5 ratio with complete RPMI. The monocytes were differentiated into macrophages using […] phorbol 12-myristate 13-acetate (PMA) before being seeded in a 96 well plate at a density of 1.0 x 10^4 cells/well and incubated in the presence of 5% CO2 for 72 hours at 37°C. Following this, cells were treated with increasing concentrations (0.05, 0.5, 5, 50, 500 µg/mL) of Pep_V2QV5D, magainin 2 or colistin before re-incubation for a further 24 hours. Post-incubation, 10 µL of MTT was added to each well at a final concentration of 500 µg/mL and incubated at 5% CO2 for 2 hours at 37°C. Formazan crystals were dissolved by the addition of 100 µL 100% DMSO and gentle shaking for 5 minutes at room temperature. The absorbance was measured at 570nm in a microplate spectrophotometer (Synergy H1, Biotek). Maximum toxicity was determined by cells incubated with 100% DMSO. Cell viability was calculated as a per cent of a control treated with PBNS. Three technical replicates were performed each day on three independent days.

colRAB [2] = assay: Complete Elimination (CE) Drop Plate method; type: cell-based, A. baumannii; settings: 90 minutes challenge in PBNS, tested alone
Procedure: (§1) Complete Elimination (CE) Drop Plate method: The CE method was primarily used as the antimicrobial susceptibility testing method for peptides used in this study. This was performed to avoid any interference of cations within the test media or buffer on the bioactivity of the peptides. This assay was performed by the method outlined by Chen et al. (2003) with minor modifications. Briefly, bacteria were grown overnight and sub-cultured to mid exponential phase. PBNS was used to make serial dilutions of bacteria in a 96 well plate. The appropriate volume of peptide was added to the wells at a final volume of 100 µL. As a control, PBNS was added to the bacterial suspensions without any peptide. The microtiter plate was incubated for 90 minutes at 37°C. Post challenge, 10 µL from each well was spotted onto appropriate media, depending on the strain. This was conducted in triplicate. The spots were left to dry, and the plates were incubated inverted. The first concentration to inhibit growth across all bacterial dilutions was determined as the CE concentration. Surviving colonies at sub-CE concentrations were counted after 18 hours incubation at 37°C. The reduction in colony forming units (CFU) was assessed relative to the untreated control and the log reduction induced by peptide treatment was calculated. All antimicrobial activity assays were performed in triplicate and on independent days.

colSAB = assay: Complete Elimination (CE) Drop Plate method; type: cell-based, A. baumannii; settings: 90 minutes challenge in PBNS
Procedure: as §1

colRAB [3] = assay: Synergy study, Fractional inhibitory concentration (FIC) by CE drop plate method; type: cell-based, A. baumannii; settings: Pep_V2QV5D combined with colistin
Procedure: Synergy studies were conducted using the above described CE drop plate method, however two peptides were mixed in a series of concentration combinations using PBNS as a diluent before bacterial inoculation and subsequent incubation. The highest concentration combination tested was the individual CE concentrations of Pep_V2QV5D and colistin, which were 12 µg/mL and 8 µg/mL, respectively. The amounts of each compound were then reduced sequentially in various proportions until the lowest possible active combination was identified.
Traditionally, the FIC in a drug mixture is defined as the sum of the FICs (ΣFIC) and is calculated with the equation; ΣFIC = FICA + FICB = (CEcombA/CEA) + (CEcombB/CEB) [formula]
Where CEA and CEB are the killing concentrations of individual peptides A and B, respectively, and CEcombA and CEcombB are the killing concentrations of the peptides in combination. In this work we used a similar concept and analysed the ratios of FICA and FICB. 'Synergy' was interpreted as a FIC ≤ 0.5, 'antagonism' as FIC > 4.0 and 'no interaction' as FIC > 0.5-4.0 [40].

A. baumannii = assay: In vitro resistance study (14 sequential passages at sub-inhibitory concentrations); type: cell-based; settings: repeated exposure to sub-inhibitory concentrations
Procedure: In vitro resistance study: This assay was conducted as outlined by Ge et al. 1999 with some modifications. Briefly, the in vitro passage study involved exposing bacteria diluted to […] in PBNS to Pep_V2QV5D at one-half of the previously established bactericidal concentration. After 90 minutes of incubation at 37°C, 10 µL was spotted in triplicate on MHB and incubated again overnight. Post-incubation, surviving colonies were collected, diluted in PBNS and adjusted to […] before repeated treatment with the sub-killing concentration of Pep_V2QV5D. The CE concentration was determined prior to the initiation of the study, after the 4th, 7th, 11th and 14th passages. If the CE concentration after the fourth passage was greater than the original killing concentration, then for passes 5, 6, and 7, the amount of peptide used during the bacterial challenge was increased to one-half of that new CE concentration. This was continued over a 14-day course. Magainin and colistin were used as controls for the in vitro resistance study. This assay was performed in independent duplicates.

For vasopressin, the half-life [1] is given as 10 to 35 min.

For VRGLAPKKSLWPFGGPFKSPFN [Pep_V2QV5D], the “toxic concentration compared to the concentration required for antimicrobial action (therapeutic index)” value (human THP-1 macrophages) was “over 40 times”.

In the case of colistin, the “Complete Elimination values (CE concentration)” value (from here on “Complete Elimination values”) (colRAB [2]) is reported as 8 µg/mL, the “Complete Elimination values” value (colRAB [2]; listed as Colistin) is reported as 8 ^(R) µg/mL and the “Complete Elimination values” value (colSAB) is reported as 0.25 µg/mL. The “CE concentration in combination” value (colRAB [3]) was 1 µg/mL, the “fold change in the CE concentration over 14 days” value (A. baumannii) was 16 fold and the “toxic concentration compared to the concentration required for antimicrobial action (therapeutic index)” value (human THP-1 macrophages) was 6.8 times.

Substance GIGKFLHSAKKFGKAFVGEIMNS [magainin 2] has a decrease in viability (human THP-1 macrophages; 50 µg/mL, 24 hours, MTT) of 22%.
